These are literature values, as cited in patent EP1269978A2, “Use of bis-resorcinyltriazine derivatives in cosmetic or dermatological preparations” (Beiersdorf AG, priority 2001, dated 2003).

SMILES strings stand for the structures.

For the series the following is noted: n-Octanol / Wasser.

For `CC1=C(/C=C/C(C)=C/C=C/C(C)=C/CO)C(C)(C)CCC1` [Retinol], the “log P-Wert” value is around 7.
